The compounds below were run against T1, human PAH with the R408W mutation (Homo sapiens, UniProt P00439, R408W) (assay: Cell Based Phenylalanine Flux Assay). Details: A375 cells expressing human R408W PAH; 24 hrs compound incubation; 13C-Tyrosine by LC-MS; average where tested multiple times; read-out: AC50.
T1 construct: expressed in transfected cells
T1 sequence (P00439 1-452 R408W): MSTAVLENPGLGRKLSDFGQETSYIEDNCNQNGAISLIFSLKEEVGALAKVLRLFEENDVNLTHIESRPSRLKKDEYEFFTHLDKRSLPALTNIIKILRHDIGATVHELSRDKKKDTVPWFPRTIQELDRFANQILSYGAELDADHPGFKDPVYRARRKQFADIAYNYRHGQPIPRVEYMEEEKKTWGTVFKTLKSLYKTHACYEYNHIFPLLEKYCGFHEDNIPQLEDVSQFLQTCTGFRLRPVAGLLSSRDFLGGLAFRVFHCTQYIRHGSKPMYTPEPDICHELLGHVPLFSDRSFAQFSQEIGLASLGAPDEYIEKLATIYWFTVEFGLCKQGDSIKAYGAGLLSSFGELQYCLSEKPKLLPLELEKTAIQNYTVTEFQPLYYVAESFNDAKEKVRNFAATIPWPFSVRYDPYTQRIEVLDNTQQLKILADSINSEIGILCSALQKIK
Design: scale not given here

AC50, < 0.5 µM:
CC(C)(O)c1nc(Br)c(C(=O)N2CCc3[nH]cnc3[C@H]2c2nc3c(F)cccc3s2)o1 [Example 1897, (S)-(4-bromo-2-(2-hydroxypropan-2-yl)oxazol-5-yl)(4-(4-fluorobenzo[d]thiazol-2-yl)-6,7-dihydro-1H-imidazo[4,5-c]pyridin-5(4H)-yl)methanone]
O=C(c1oc(C2(O)CCC2)nc1C(F)(F)F)N1CCc2[nH]cnc2[C@H]1c1nc2c(F)cccc2s1 [Example 1637, (S)-(4-(4-fluorobenzo[d]thiazol-2-yl)-6,7-dihydro-1H-imidazo[4,5-c]pyridin-5(4H)-yl)(2-(1-hydroxycyclobutyl)-4-(trifluoromethyl)oxazol-5-yl)methanone]
Cc1nc(-c2cnn(CC(F)(F)F)c2)oc1C(=O)N1CCc2[nH]cnc2[C@H]1c1nc2ccccc2s1 [Example 1413]
O=C(CC1CC(F)(F)C1)N1CCc2[nH]cnc2[C@H]1c1nc2ccccc2s1 [Example 1277]
O=C(c1nnc(-c2cnn(C(F)F)c2)o1)N1CCc2[nH]cnc2[C@H]1c1nc2c(F)cccc2s1 [Example 1824, (S)-(5-(1-(difluoromethyl)-1H-pyrazol-4-yl)-1,3,4-oxadiazol-2-yl)(4-(4-fluorobenzo[d]thiazol-2-yl)-6,7-dihydro-1H-imidazo[4,5-c]pyridin-5(4H)-yl)methanone]
CN(C)Cc1nc(C(F)F)c(C(=O)N2CCc3[nH]cnc3[C@H]2c2nc3ccccc3s2)o1 [Example 1781]
O=C(c1ocnc1CF)N1CCc2[nH]cnc2[C@H]1c1nc2c(F)cccc2s1 [Example 2041, (S)-(4-(4-fluorobenzo[d]thiazol-2-yl)-6,7-dihydro-1H-imidazo[4,5-c]pyridin-5(4H)-yl)(4-(fluoromethyl)oxazol-5-yl)methanone]
N#Cc1nc(-c2ccccn2)oc1C(=O)N1CCc2[nH]cnc2[C@H]1c1nc2ccccc2s1 [Example 1714, (S)-5-(4-(benzo[d]thiazol-2-yl)-4,5,6,7-tetrahydro-1H-imidazo[4,5-c]pyridine-5-carbonyl)-2-(pyridin-2-yl)oxazole-4-carbonitrile]
O=C(c1oc(C2CC2)nc1C(F)(F)F)N1CCc2[nH]cnc2[C@H]1c1nc2ccccc2s1 [Example 2163]

AC50, 1 to 5 µM:
O=C(c1cn[nH]c1C(F)F)N1CCc2[nH]cnc2[C@@H]1c1nc2c(F)cccc2s1 [Example 1860, (R)-(5-(difluoromethyl)-1H-pyrazol-4-yl)(4-(4-fluorobenzo[d]thiazol-2-yl)-6,7-dihydro-1H-imidazo[4,5-c]pyridin-5(4H)-yl)methanone]
O=C(c1cnn2cc(CN3CCOCC3)ccc12)N1CCc2[nH]cnc2[C@H]1c1nc2ccccc2s1 [Example 2155]
CC(C)(O)c1nc(Cl)c(C(=O)N2CCc3[nH]cnc3[C@@H]2c2nc3c(F)cccc3s2)s1 [Example 2088, (R)-(4-chloro-2-(2-hydroxypropan-2-yl)thiazol-5-yl)(4-(4-fluorobenzo[d]thiazol-2-yl)-6,7-dihydro-1H-imidazo[4,5-c]pyridin-5(4H)-yl)methanone]
O=C(c1cnn(CC(F)F)c1Cl)N1CCc2[nH]cnc2[C@@H]1c1nc2c(F)cccc2s1 [Example 2018, (R)-(5-chloro-1-(2,2-difluoroethyl)-1H-pyrazol-4-yl)(4-(4-fluorobenzo[d]thiazol-2-yl)-6,7-dihydro-1H-imidazo[4,5-c]pyridin-5(4H)-yl)methanone]
O=C(c1nc(Cl)cs1)N1CCc2[nH]cnc2[C@@H]1c1nc2cc(F)ccc2s1 [Example 1298, (R)-(4-chlorothiazol-2-yl)(4-(5-fluorobenzo[d]thiazol-2-yl)-6,7-dihydro-1H-imidazo[4,5-c]pyridin-5(4H)-yl)methanone]
Cn1cc(-c2nnc(C(=O)N3CCc4[nH]cnc4[C@H]3c3nc4ccccc4s3)o2)cn1 [Example 1462]
O=C(c1ocnc1CF)N1CCc2[nH]cnc2[C@@H]1c1nc2c(F)cccc2s1 [Example 2042, (R)-(4-(4-fluorobenzo[d]thiazol-2-yl)-6,7-dihydro-1H-imidazo[4,5-c]pyridin-5(4H)-yl)(4-(fluoromethyl)oxazol-5-yl)methanone]
O=C(c1nc(Cl)cs1)N1CCc2[nH]cnc2[C@H]1c1nc2cccc(F)c2s1 [Example 1263]
O=C(c1oc(COC(F)(F)F)nc1C(F)F)N1CCc2[nH]cnc2[C@@H]1c1nc2ccccc2s1 [Example 1832, (R)-(4-(benzo[d]thiazol-2-yl)-6,7-dihydro-1H-imidazo[4,5-c]pyridin-5(4H)-yl)(4-(difluoromethyl)-2-((trifluoromethoxy)methyl)oxazol-5-yl)methanone]
O=C(c1nnc(-c2ccccn2)o1)N1CC2(CC2)c2[nH]cnc2[C@@H]1c1nc2ccccc2s1 [Example 1683, (R)-(4′-(benzo[d]thiazol-2-yl)spiro[cyclopropane-1,7′-imidazo[4,5-c]pyridin]-5′(1′H,4′H,6′H)-yl)(5-(pyridin-2-yl)-1,3,4-oxadiazol-2-yl)methanone]

AC50, > 5 µM:
Cc1nnc(C(=O)N2CCc3[nH]cnc3[C@@H]2c2nc3c(F)cccc3s2)s1 [Example 1251, (R)-(4-(4-fluorobenzo[d]thiazol-2-yl)-6,7-dihydro-1H-imidazo[4,5-c]pyridin-5(4H)-yl)(5-methyl-1,3,4-thiadiazol-2-yl)methanone]
O=C(c1ncn2ccccc12)N1CCc2[nH]cnc2[C@@H]1c1nc2cc(F)ccc2s1 [Example 1158, (R)-(4-(5-fluorobenzo[d]thiazol-2-yl)-6,7-dihydro-1H-imidazo[4,5-c]pyridin-5(4H)-yl)(imidazo[1,5-a]pyridin-1-yl)methanone]
O=C(c1cnn2cc(F)ccc12)N1CCc2[nH]cnc2[C@@H]1c1nc2cc(F)ccc2s1 [Example 1334, (R)-(4-(5-fluorobenzo[d]thiazol-2-yl)-6,7-dihydro-1H-imidazo[4,5-c]pyridin-5(4H)-yl)(6-fluoropyrazolo[1,5-a]pyridin-3-yl)methanone]
N#Cc1nc(-c2ccccn2)oc1C(=O)N1CCc2[nH]cnc2[C@@H]1c1nc2ccccc2s1 [Example 1713, (R)-5-(4-(benzo[d]thiazol-2-yl)-4,5,6,7-tetrahydro-1H-imidazo[4,5-c]pyridine-5-carbonyl)-2-(pyridin-2-yl)oxazole-4-carbonitrile]
Cn1ncnc1C(=O)N1CCc2[nH]cnc2[C@@H]1c1nc2ccccc2s1 [Example 1814, (R)-(4-(benzo[d]thiazol-2-yl)-6,7-dihydro-1H-imidazo[4,5-c]pyridin-5(4H)-yl)(1-methyl-1H-1,2,4-triazol-5-yl)methanone]

Same assay, conditions: A375 cells expressing human R408W PAH; 24 hrs with compound; 13C-Tyrosine by LC-MS; average where tested multiple times

AC50, E, E:
CN(C)CCc1nc(C#N)c(C(=O)N2CCc3[nH]cnc3C2c2nc3ccccc3s2)o1 (stereo not drawn)

Same assay, conditions: A375 cells expressing human R408W PAH; 24 hrs with compound; 13C-Tyrosine by LC-MS; average where tested multiple times; read-out: AC50

AC50, 1 to 5 µM:
[2H]C([2H])([2H])OCc1cc(C(=O)N2CCc3[nH]cnc3C2c2nc3c(F)cccc3s2)n(C)n1 (stereo not drawn)
COc1ccn2ncc(C(=O)N3CCc4[nH]cnc4C3c3nc4ccc(Cl)cc4[nH]3)c2c1 (stereo not drawn)
Cc1ncoc1C(=O)N1CC2(CC2)c2[nH]cnc2C1c1nc2c(F)cccc2s1 (stereo not drawn)
O=C(Cc1nc(C(F)(F)F)cs1)N1CCc2[nH]cnc2C1c1nc2ccc(F)cc2[nH]1 (stereo not drawn)
Cc1cc(C(=O)N2CCc3[nH]cnc3C2c2nc3c(F)cccc3s2)n(-c2ccc(F)cc2)n1 (stereo not drawn)
O=C(Cc1nc(C(F)(F)F)cs1)N1CCc2[nH]cnc2C1c1nc2ccc(Cl)cc2[nH]1 (stereo not drawn)
O=C(c1nnc(CCN2CCOCC2)o1)N1CCc2[nH]cnc2C1c1nc2ccccc2s1 (stereo not drawn)
O=C(c1nc2ccccc2s1)N1CCc2[nH]cnc2C1c1nc2ccc(F)cc2s1 (stereo not drawn)
O=C(c1nccs1)N1CCc2nc[nH]c2C1c1nc2ccc(F)cc2s1 (stereo not drawn)
Cc1ccc2c(C(=O)N3CCc4[nH]cnc4C3c3nc4ccc(F)cc4s3)cnn2c1 (stereo not drawn)
CC(C)(O)c1cc(C(=O)N2CCc3[nH]cnc3C2c2nc3c(F)cccc3s2)sn1 (stereo not drawn)
CC(=O)Cn1ncc(C(=O)N2CCc3[nH]cnc3C2c2nc3c(F)cccc3s2)c1Cl (stereo not drawn)
CC1CN(C(=O)c2cnc(N3CCOCC3)o2)C(c2nc3ccccc3s2)c2nc[nH]c21 (stereo not drawn)
O=C(Nc1ccc(F)cc1)N1CCc2[nH]cnc2C1c1nc2ccccc2s1 (stereo not drawn)
Cc1nc(CCC2CC2)oc1C(=O)N1CCCc2[nH]cnc2[C@H]1c1nc2ccccc2s1 (single isomer, unassigned)
Cn1nc(C(F)F)nc1C(=O)N1CCc2[nH]cnc2C1c1nc2c(F)cccc2s1 (stereo not drawn)

AC50, > 5 µM:
Cc1nc(C(=O)N2CCc3[nH]cnc3C2c2nc3ccccc3s2)no1 (stereo not drawn)
O=C(Cc1nccs1)N1CCc2[nH]cnc2C1c1nc2ccc(Br)cc2s1 (stereo not drawn)
O=C(N1CCC(c2ccccc2)C1)N1CCc2[nH]cnc2C1c1nc2ccccc2s1 (stereo not drawn)
Cn1cnc(C(=O)N2CCc3[nH]cnc3C2c2nc3ccccc3s2)n1 (stereo not drawn)
O=C(c1cnn2cccc(F)c12)N1CCc2[nH]cnc2C1c1nc2ccc(Br)cc2[nH]1 (stereo not drawn)
O=C(c1cncs1)N1CCc2[nH]cnc2C1c1nc2ccc(F)cc2s1 (stereo not drawn)
O=C(c1nc2ccccc2s1)N1CCc2[nH]cnc2C1c1nc2cccc(F)c2s1 (stereo not drawn)

Reference: patent US20250171438A1 (Agios Pharmaceuticals, Inc., priority 2022, published 2025)
